# Measurements published in patent US20070134165A1 (Altana Pharma AG, priority 2004, published 2007).
# What was measured:
# [1] = tested on: glucocorticosteroid receptor; conditions: ratio versus ciclesonide; cited from earlier work
# patients with asthma = experiment: Double-blind, randomized, parallel group clinical study, ciclesonide vs budesonide once daily in the evening for 12 weeks; format: in vivo; conditions: for FEV1 / FVC / PEF / morning PEF: ex smokers, ITT, LSmeans
# Excerpt: Another objective was to provide information on the safety and tolerability of ciclesonide.
# asthma patients = conditions: ex-smokers, ciclesonide versus budesonide; cited from earlier work
# [2] = cited from earlier work
# [3] = end of 12 weeks, CIC 200 μg or BUD 400 μg once daily in the evening
SMILES,affinity to the glucocorticosteroid receptor relative to ciclesonide [1],FEV1 (patients with asthma; [3]),FVC (patients with asthma; [3]),PEF (patients with asthma; [3]),morning PEF (patients with asthma; [3]),FEV1 (patients with asthma; start of treatment),FVC (patients with asthma; start of treatment),PEF (patients with asthma; start of treatment),morning PEF (patients with asthma; start of treatment),subgroup analysis of FEV1 (asthma patients),"change in FEV1, subgroup analysis (patients with asthma; (ex-)smokers subgroup, after 12 weeks of treatment)",improvement in lung function compared to treatment with budesonide (patients with asthma; smoking asthmatic patients),concentration of the drug in the lungs ([2]; in vivo),metabolism by liver oxidases ([2]; in vivo),plasma half-life ([2]; in vivo),systemic activity ([2]; in vivo),absorption after oral administration ([2]; oral)
"C[C@]12C=CC(=O)C=C1CC[C@@H]1[C@@H]2[C@@H](O)C[C@@]2(C)[C@H]1C[C@H]1O[C@@H](C3CCCCC3)O[C@]12C(=O)CO (mixture of isomers) [desisobutyryl-ciclesonide, 16α,17-(22R,S)-cyclohexylmethylenedioxy-11β,21-dihydroxypregna-1,4-diene-3,20-dione]",approximately 100 times higher,,,,,,,,,,,,,,,,
CCCC1O[C@@H]2C[C@H]3[C@@H]4CCC5=CC(=O)C=C[C@]5(C)[C@H]4[C@@H](O)C[C@]3(C)[C@]2(C(=O)CO)O1 (stereo partly shown) [budesonide],,2.602 L,3.385 L,357 L/min,391 L/min,2.339 L,3.146 L,310 L/min,370 L/min,,,,,,,,
"CC(C)C(=O)OCC(=O)[C@@]12O[C@H](C3CCCCC3)O[C@@H]1C[C@H]1[C@@H]3CCC4=CC(=O)C=C[C@]4(C)[C@H]3[C@@H](O)C[C@@]12C [Ciclesonide, [11β,16α(R)]-16,17-[(Cyclohexylmethylene)bis(oxy)]-11-hydroxy-21-(2-methyl-1-oxo-propoxy)pregna-1,4-diene-3,20-dione]",,2.773 L,3.604 L,391 L/min,416 L/min,2.336 L,3.146 L,310 L/min,370 L/min,trend for superiority of ciclesonide over budesonide,statistically significant increases,superior improvements in lung function,high,very high,low,low,only moderately absorbed
